Earlier results as cited in patent US10954336B2 (SCRUM Co., Ltd., priority 2017, dated 2021).

Conditions: comparison / conventional substances

In the case of `C[C@H](O)C(=O)O` [L-lactic acid], the Acidity is given as “yes”.
